Experimental data published in US20230219898A1, “COMPOUNDS AND METHODS FOR BLOCKING APOPTOSIS AND INDUCING AUTOPHAGY” (President and Fellows of Harvard College, priority 2020, published 2023).

Experiment: Pharmacokinetic (DMPK) study of Apt-1, intracerebroventricular micro-osmotic pump
Assay type: in vivo, mice
Conditions: mouse, hippocampus, ICV pump 20 mM Apt-1, 0.25 μl/h
Method: Apt-1 was delivered using intracerebroventricular Alzet micro-osmotic pump (20 mM Apt-1, […], release rate: […]). CSF was collected at 1 h, 6 h, and 24 h. Hippocampi were collected at 24 h. The concentrations of Apt-1 were measured by HPLC. The concentration of Apt-1 in hippocampus at 24 h was 6.27 μM. Mean ±s.e.m. (n=3 mice in each group).
WT mice (2 months old) were deeply anesthetized with isoflurane and immobilized in a stereotaxic frame using predetermined coordinates under aseptic conditions. All animals were observed during and after surgery, and an analgesic was administered after surgery. Apt-1 (20 mM, 100 μl, release rate: 0.25 μl/h) was delivered intracerebroventricularly via an ALZET micro-osmotic pump (ALZET Model 1002) and ALZET brain infusion kits into lateral ventricles (ML, −1.0 mm; AP, −0.5 mm; DV, 2.0 mm). The ALZET micro-osmotic pumps were fixed on the skulls of the mice by instant adhesive and the skin incision was closed by suture. At 1 h, 6 h and 24 h after the onset of delivery, cerebrospinal fluid (CSF) was carefully withdrawn by a Hamilton syringe from lateral ventricles (ML, −1.0 mm; AP, −0.5 mm; DV, 2.0 mm) for DMPK analysis. The mice were sacrificed at 24 h and the hippocampi were dissected for DMPK analysis. […] The concentrations of Apt-1 in collected samples were measured by HPLC as a custom service by the Scripps Research Institute Florida.

## CN1CCN=C1SC(C(=O)NC1CCCCCC1)c1ccccc1 (stereo not shown) [Compound 30]
  concentration at 24 h: 6.27 µM
